Data from paper PMC2689245, “Purification and characterization of a serine protease (CESP) from mature coconut endosperm” (BMC Research Notes, 2009).

Tested on: T1, CESP (coconut endosperm protease)
T1 construct: native, purified from fully matured coconut kernel (endosperm)
Assay: p-nitroaniline release at […] nm
Type: biochemical, Cocos nucifera
Conditions: 100 mM Tris HCl pH 8.5, 37 °C

Q: With `N=C(N)NCCCC(NC(=O)c1ccccc1)C(=O)Nc1ccc([N+](=O)[O-])cc1` (racemic) [BAPNA] as the compound, how does the Km read?
A: 200 µM
